Data taken from patent US8569302B2, “Inhibitors of flaviviridae viruses” (Gilead Sciences, Inc., priority 2009, dated 2013).

Test system: human hepatoma Huh-7 cell line harboring a HCV replicon
Assay: HCV replicon assay (inhibition of viral replication, luciferase readout)
Type: cell-based
Settings: Hepatitis C virus, 72 h, Huh-7 HCV replicon cells, 3 days incubation
Procedure, shortened: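 Huh-7 replicon cells were exposed to 10-point 3-fold compound dilutions (0.44% DMSO) for 3 days at 37 °C. Replicon replication was read by Dual-Glo luciferase, with background from protease-inhibitor wells subtracted, and viability by calcein AM. EC50/CC50 came from a Hill-equation fit versus DMSO controls.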

In order of rising inhibition at 2 µM:
1. Cc1nnc(S[C@H]2CC[C@@H](N(c3cc(C#CC(C)(C)C)sc3C(=O)O)C(=O)[C@H]3CC[C@H](C)CC3)CC2)s1 [Compound 103, 5-(3,3-Dimethylbut-1-ynyl)-3-(4-methyl-N-(4-(5-methyl-1,3,4-thiadiazol-2-ylthio)cyclohexyl)cyclohexanecarboxamido)thiophene-2-carboxylic acid]  98.3%
2. Cn1nnnc1S[C@H]1CC[C@@H](N(c2cc(C#CC(C)(C)C)sc2C(=O)O)C(=O)[C@H]2CC[C@H](C)CC2)CC1 [Compound 104, 5-(3,3-Dimethylbut-1-ynyl)-3-(4-methyl-N-(4-(1-methyl-1H-tetrazol-5-ylthio)cyclohexyl)cyclohexanecarboxamido)thiophene-2-carboxylic acid]  98.7%
3. CC(C)(C)C#Cc1cc(N(C(=O)[C@H]2CC[C@H](C)CC2)[C@H]2CC[C@@H](Sc3nccs3)CC2)c(C(=O)O)s1 [Compound 107, 5-(3,3-Dimethylbut-1-ynyl)-3-(4-methyl-N-(4-(thiazol-2-ylthio)cyclohexyl)cyclohexanecarboxamido)thiophene-2-carboxylic acid]  98.9%
4. CC(C)(C)C#Cc1cc(N(C(=O)[C@H]2CC[C@H](C)CC2)[C@H]2CC[C@@H](Sc3ncccn3)CC2)c(C(=O)O)s1 [Compound 108, 5-(3,3-Dimethylbut-1-ynyl)-3-(4-methyl-N-(4-(pyrimidin-2-ylthio)cyclohexyl)cyclohexanecarboxamido)thiophene-2-carboxylic acid]  99.3%
5. CC1CCC(C(=O)N(CCOc2cccnc2)c2cc(C#CC(C)(C)C)sc2C(=O)O)CC1 (centres unmarked) [Compound 138]  99.7%
6. Cn1nnnc1[S+]([O-])[C@H]1CC[C@H](N(c2cc(C#CC(C)(C)C)sc2C(=O)O)C(=O)[C@H]2CC[C@H](C)CC2)CC1 (stereo partly drawn) [Compound 111, 5-(3,3-Dimethylbut-1-ynyl)-3-((1r,4S)-4-methyl-N-(4-((R)-1-methyl-1H-tetrazol-5-ylsulfinyl)cyclohexyl)cyclohexanecarboxamido)thiophene-2-carboxylic acid]  99.8%
7. Cc1nnc(S[C@H]2CC[C@H](N(c3cc(C#CC(C)(C)C)sc3C(=O)O)C(=O)[C@H]3CC[C@H](C)CC3)CC2)s1 [Compound 102, 5-(3,3-Dimethylbut-1-ynyl)-3-(4-methyl-N-(4-(5-methyl-1,3,4-thiadiazol-2-ylthio)cyclohexyl)cyclohexanecarboxamido)thiophene-2-carboxylic acid]  99.9%
8. CC(C)(C)C#Cc1cc(N(C(=O)[C@H]2CC[C@H](C)CC2)[C@H]2CC[C@@H](Sc3nncs3)CC2)c(C(=O)O)s1 [Compound 105, 3-(N-(4-(1,3,4-Thiadiazol-2-ylthio)cyclohexyl)-4-methylcyclohexanecarboxamido)-5-(3,3-dimethylbut-1-ynyl)thiophene-2-carboxylic acid]  99.9%
9. CC(C)(C)C#Cc1cc(N(C(=O)[C@H]2CC[C@H](C)CC2)[C@H]2CC[C@H](Sc3nccs3)CC2)c(C(=O)O)s1 [Compound 106, 5-(3,3-Dimethylbut-1-ynyl)-3-(4-methyl-N-(4-(thiazol-2-ylthio)cyclohexyl)cyclohexanecarboxamido)thiophene-2-carboxylic acid]  99.9%
10. CC(C)(C)C#Cc1cc(N(C(=O)[C@H]2CC[C@H](C)CC2)[C@H]2CC[C@H](S(=O)(=O)C3CCOCC3)CC2)c(C(=O)O)s1 [Compound 109, 5-(3,3-Dimethylbut-1-ynyl)-3-(4-methyl-N-(4-(tetrahydro-2H-pyran-4-ylsulfonyl)cyclohexyl)cyclohexanecarboxamido)thiophene-2-carboxylic acid]  99.9%
11. Cn1nnnc1S(=O)(=O)[C@H]1CC[C@H](N(c2cc(C#CC(C)(C)C)sc2C(=O)O)C(=O)[C@H]2CC[C@H](C)CC2)CC1 [Compound 110, 5-(3,3-Dimethylbut-1-ynyl)-3-(4-methyl-N-(4-(1-methyl-1H-tetrazol-5-ylsulfonyl)cyclohexyl)cyclohexanecarboxamido)thiophene-2-carboxylic acid]  100%
